“Also recorded” adds a separate entry of the source. Some results are limits rather than exact numbers.

One data set concerns the target human AChE (Homo sapiens, UniProt P22303). As to the kind of experiment: AChE inhibition, modified Ellman spectrophotometric method. In kind it is biochemical. The conditions noted are these: for inhibition at 100 µM / inhibition at 1000 µM / inhibition at 0.001 µM / inhibition at 0.01 µM / inhibition at 0.1 µM / inhibition at 1 µM / inhibition at 10 µM: read-out: human AChE inhibition %. On the technique in general: In Ellman's method for cholinesterases, released thiocholine reacts with DTNB.

Another data set deals with human BuChE (Homo sapiens, UniProt P06276). As to the kind of experiment: biochemical. The conditions noted are these: for inhibition at 100 µM / inhibition at 1000 µM: read-out: human BuChE inhibition%.
Data set [1] can be described thus: In vitro BBB permeability assay. In kind it is in vitro ADME. The note with it: PAMPA; for type of BBB permeation: class by Pe. For orientation: The PAMPA barrier holds no transporters, so it reflects passive diffusion.

human BuChE, sequence (P06276 29-602): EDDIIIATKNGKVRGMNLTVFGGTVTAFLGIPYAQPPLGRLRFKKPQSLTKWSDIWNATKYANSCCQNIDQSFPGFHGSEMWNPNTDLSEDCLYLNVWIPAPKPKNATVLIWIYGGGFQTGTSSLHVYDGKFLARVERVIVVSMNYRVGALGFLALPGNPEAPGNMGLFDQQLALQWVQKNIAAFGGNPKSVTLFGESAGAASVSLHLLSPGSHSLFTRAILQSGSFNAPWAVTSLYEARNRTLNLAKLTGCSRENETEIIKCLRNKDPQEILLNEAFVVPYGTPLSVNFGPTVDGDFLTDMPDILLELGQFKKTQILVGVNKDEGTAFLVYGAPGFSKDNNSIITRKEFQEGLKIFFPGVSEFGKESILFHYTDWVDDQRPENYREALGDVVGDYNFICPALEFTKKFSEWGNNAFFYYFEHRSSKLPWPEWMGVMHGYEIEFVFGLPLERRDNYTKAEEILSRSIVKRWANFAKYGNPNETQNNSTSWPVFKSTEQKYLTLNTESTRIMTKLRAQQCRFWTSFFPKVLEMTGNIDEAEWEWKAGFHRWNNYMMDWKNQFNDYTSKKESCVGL
human AChE, sequence (P22303 32-614): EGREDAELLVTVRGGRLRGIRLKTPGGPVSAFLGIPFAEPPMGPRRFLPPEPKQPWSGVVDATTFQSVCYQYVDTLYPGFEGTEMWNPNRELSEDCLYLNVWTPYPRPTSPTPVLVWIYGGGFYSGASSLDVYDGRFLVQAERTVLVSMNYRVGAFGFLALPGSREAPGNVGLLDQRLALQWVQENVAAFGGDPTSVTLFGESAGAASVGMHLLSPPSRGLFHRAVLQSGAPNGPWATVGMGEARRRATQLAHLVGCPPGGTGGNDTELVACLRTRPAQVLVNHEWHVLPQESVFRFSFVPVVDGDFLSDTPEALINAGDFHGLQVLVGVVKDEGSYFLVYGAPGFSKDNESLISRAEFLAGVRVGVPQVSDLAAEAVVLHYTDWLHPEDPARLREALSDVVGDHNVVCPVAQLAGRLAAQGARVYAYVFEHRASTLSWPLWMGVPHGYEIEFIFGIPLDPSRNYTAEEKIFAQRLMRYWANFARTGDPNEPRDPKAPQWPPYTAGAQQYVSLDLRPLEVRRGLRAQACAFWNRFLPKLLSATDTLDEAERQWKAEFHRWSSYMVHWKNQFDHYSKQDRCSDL

As a reminder, the IC50 is the concentration at which inhibition is half-maximal. What is called inhibition is the share of the control response that was lost under treatment. For the molecule `Fc1ccc(N2N=C(c3ccsc3)CC2c2ccc(N3CCOCC3)cc2)cc1` (centres unmarked) [Compound 2f, 1-(4-Fluorophenyl)-3-(thiophen-3-yl)-5-[4-(4-morpholinyl)phenyl]-2-pyrazoline], on human AChE, the IC50 was more than 100 µM, the inhibition at 100 µM turned out to be 45.4 ± 1.99% and the inhibition at 1000 µM worked out at 71.4 ± 2.46%. Further, on human BuChE, the IC50 was more than 1000 µM, the inhibition at 100 µM came to 21.9 ± 0.89% and the inhibition at 1000 µM was determined as 31.5 ± 1.15%.
Take `Brc1cccc(N2N=C(c3ccsc3)CC2c2ccc(N3CCOCC3)cc2)c1` (centres unmarked) [Compound 2k, 1-(3-Bromophenyl)-3-(thiophen-3-yl)-5-[4-(4-morpholinyl)phenyl]-2-pyrazoline]: on human AChE, the IC50 was more than 1000 µM, the inhibition at 100 µM was 30.3 ± 1.03% and the inhibition at 1000 µM is 45.8 ± 1.72%. Also, at human BuChE, the IC50 is more than 1000 µM, the inhibition at 100 µM was determined as 17.6 ± 0.81% and the inhibition at 1000 µM stood at 29 ± 1.09%.
For the molecule `Clc1cccc(N2N=C(c3ccsc3)CC2c2ccc(N3CCOCC3)cc2)c1` (centres unmarked) [Compound 2j, 1-(3-Chlorophenyl)-3-(thiophen-3-yl)-5-[4-(4-morpholinyl)phenyl]-2-pyrazoline], at human AChE, inhibition was half-maximal at 0.062 ± 0.003 µM (IC50), the inhibition at 0.001 µM stood at 19 ± 0.63%, the inhibition at 0.01 µM came to 36.2 ± 0.98% and the inhibition at 0.1 µM stood at 60.8 ± 1.64%. In addition, at human AChE, the inhibition at 1 µM stood at 72 ± 1.78%, the inhibition at 10 µM worked out at 80.2 ± 2.16%, the inhibition at 100 µM turned out to be 89.5 ± 1.85% and the inhibition at 1000 µM stood at 93.1 ± 2.85%. Moreover, the “type of BBB permeation” value in data set [1] is “CNS ± uncertain BBB permeation”. Also, at human BuChE, the IC50 was more than 1000 µM, the inhibition at 100 µM was 24.9 ± 0.97% and the inhibition at 1000 µM was 34.3 ± 1.55%.
In the case of `Cc1ccc(N2N=C(c3ccsc3)CC2c2ccc(N3CCOCC3)cc2)cc1` (centres unmarked) [Compound 2c, 1-(4-Methylphenyl)-3-(thiophen-3-yl)-5-[4-(4-morpholinyl)phenyl]-2-pyrazoline], on human AChE, the IC50 is more than 100 µM, the inhibition at 100 µM was found to be 38.7 ± 1.34% and the inhibition at 1000 µM is 73.6 ± 2.06%. Moreover, at human BuChE, the IC50 is more than 1000 µM, the inhibition at 100 µM amounted to 20.6 ± 0.82% and the inhibition at 1000 µM was 29.3 ± 0.99%.
Regarding `CS(=O)(=O)c1ccc(N2N=C(c3ccsc3)CC2c2ccc(N3CCOCC3)cc2)cc1` (centres unmarked) [Compound 2b, 1-(4-Methylsulfonylphenyl)-3-(thiophen-3-yl)-5-[4-(4-morpholinyl)phenyl]-2-pyrazoline], on human AChE, the half-maximal inhibitory concentration (IC50) was more than 1000 µM, the inhibition at 100 µM was 23.1 ± 0.95% and the inhibition at 1000 µM was found to be 40.6 ± 1.76%. On human BuChE, the 50% inhibitory concentration (IC50) was more than 1000 µM, the inhibition at 100 µM was 15.1 ± 0.78% and the inhibition at 1000 µM was 26.4 ± 0.75%.
As for `O=C(C=Cc1ccc(N2CCOCC2)cc1)c1ccsc1` [Compound 1, 3-(4-Morpholinophenyl)-1-(thiophen-3-yl)prop-2-en-1-one], at human AChE, the IC50 is more than 100 µM, the inhibition at 100 µM turned out to be 41.1 ± 1.87% and the inhibition at 1000 µM is 78.3 ± 2.1%. In addition, at human BuChE, the IC50 was more than 1000 µM, the inhibition at 100 µM is 21.3 ± 0.84% and the inhibition at 1000 µM is 46.6 ± 0.92%.
Take `O=[N+]([O-])c1cccc(N2N=C(c3ccsc3)CC2c2ccc(N3CCOCC3)cc2)c1` (centres unmarked) [Compound 2l, 1-(3-Nitrophenyl)-3-(thiophen-3-yl)-5-[4-(4-morpholinyl)phenyl]-2-pyrazoline]: at human AChE, the midpoint of inhibition, the IC50, lay at 0.04 ± 0.0019 µM; the inhibition at 0.001 µM was 19.3 ± 0.75%; the inhibition at 0.01 µM was 42.2 ± 1.52%; the inhibition at 0.1 µM was 64.6 ± 1.85%. Further, at human AChE, the inhibition at 1 µM is 75.4 ± 1.03%, the inhibition at 10 µM was 82.6 ± 1.51%, the inhibition at 100 µM was 91.7 ± 1.92% and the inhibition at 1000 µM was 95.3 ± 2.03%. For the same molecule, in data set [1], the “BBB permeability (in words)” value is recorded as “high blood–brain barrier permeability; also recorded: high BBB permeability” and the “type of BBB permeation” value is on record as “CNS+ high BBB permeation (high BBB permeation Pe (10^–6 cm s^–1) > 4.0)”. On human BuChE, the half-maximal inhibitory concentration (IC50) is more than 1000 µM, the inhibition at 100 µM was found to be 19.3 ± 0.82% and the inhibition at 1000 µM stood at 30.5 ± 0.97%.
On to `Clc1ccc(N2N=C(c3ccsc3)CC2c2ccc(N3CCOCC3)cc2)cc1` (centres unmarked) [Compound 2g, 1-(4-Chlorophenyl)-3-(thiophen-3-yl)-5-[4-(4-morpholinyl)phenyl]-2-pyrazoline], for which, at human AChE, it took 0.122 ± 0.0051 µM to reach half-maximal inhibition (IC50), the inhibition at 0.001 µM is 15.6 ± 0.73%, the inhibition at 0.01 µM was found to be 23.1 ± 1.06% and the inhibition at 0.1 µM turned out to be 47.9 ± 0.96%. Also, on human AChE, the inhibition at 1 µM was 79.5 ± 1.57%, the inhibition at 10 µM was found to be 82.4 ± 2.17%, the inhibition at 100 µM was 86.6 ± 2.56% and the inhibition at 1000 µM worked out at 90.7 ± 1.15%. The “type of BBB permeation” value in data set [1] is recorded as “CNS ± uncertain BBB permeation”. For the same molecule, on human BuChE, the IC50 is more than 1000 µM, the inhibition at 100 µM came to 20.8 ± 0.93% and the inhibition at 1000 µM amounted to 25 ± 0.96%.
On to `Brc1ccc(N2N=C(c3ccsc3)CC2c2ccc(N3CCOCC3)cc2)cc1` (centres unmarked) [Compound 2h, 1-(4-Bromophenyl)-3-(thiophen-3-yl)-5-[4-(4-morpholinyl)phenyl]-2-pyrazoline], for which, on human AChE, the 50% inhibitory concentration (IC50) was more than 1000 µM, the inhibition at 100 µM was 20.9 ± 0.83% and the inhibition at 1000 µM was determined as 46.5 ± 1.94%. Besides, on human BuChE, the IC50 was more than 1000 µM, the inhibition at 100 µM was 26.2 ± 1.25% and the inhibition at 1000 µM is 40.8 ± 1.94%.
On to `c1ccc(N2N=C(c3ccsc3)CC2c2ccc(N3CCOCC3)cc2)cc1` (centres unmarked) [Compound 2a, 1-Phenyl-3-(thiophen-3-yl)-5-[4-(4-morpholinyl)phenyl]-2-pyrazoline], for which, at human AChE, it took 0.107 ± 0.0048 µM to reach half-maximal inhibition (IC50), the inhibition at 0.001 µM is 14.7 ± 0.66%, the inhibition at 0.01 µM stood at 20.3 ± 0.99% and the inhibition at 0.1 µM came out at 49.7 ± 1.74%. In addition, on human AChE, the inhibition at 1 µM came to 82.5 ± 1.91%, the inhibition at 10 µM is 84.8 ± 1.8%, the inhibition at 100 µM came out at 88.6 ± 2.06% and the inhibition at 1000 µM turned out to be 91.4 ± 2.46%. In addition, in data set [1], the “BBB permeability (in words)” value was “high BBB permeability” and the “type of BBB permeation” value is listed as “CNS+ high BBB permeation (high BBB permeation Pe (10^–6 cm s^–1) > 4.0)”. Besides, at human BuChE, the IC50 was more than 1000 µM, the inhibition at 100 µM was found to be 18.1 ± 0.76% and the inhibition at 1000 µM stood at 31.1 ± 0.84%.
On to `COc1ccc(N2N=C(c3ccsc3)CC2c2ccc(N3CCOCC3)cc2)cc1` (centres unmarked) [Compound 2d, 1-(4-Methoxyphenyl)-3-(thiophen-3-yl)-5-[4-(4-morpholinyl)phenyl]-2-pyrazoline], for which, on human AChE, the IC50 was more than 100 µM, the inhibition at 100 µM was 44.2 ± 1.24% and the inhibition at 1000 µM was 84.5 ± 2.36%. In addition, on human BuChE, the IC50 was more than 1000 µM, the inhibition at 100 µM came to 21.1 ± 0.86% and the inhibition at 1000 µM stood at 33.1 ± 0.99%.
On to `N#Cc1ccc(N2N=C(c3ccsc3)CC2c2ccc(N3CCOCC3)cc2)cc1` (centres unmarked) [Compound 2e, 1-(4-Cyanophenyl)-3-(thiophen-3-yl)-5-[4-(4-morpholinyl)phenyl]-2-pyrazoline], for which, at human AChE, the concentration for half-maximal inhibition (IC50) was more than 100 µM, the inhibition at 100 µM was 47.6 ± 1.85% and the inhibition at 1000 µM came to 81.2 ± 1.91%. Moreover, at human BuChE, the half-inhibitory concentration (IC50) is more than 1000 µM, the inhibition at 100 µM worked out at 23.4 ± 1.06% and the inhibition at 1000 µM amounted to 38.9 ± 1.22%.
Turning to `Fc1cccc(N2N=C(c3ccsc3)CC2c2ccc(N3CCOCC3)cc2)c1` (centres unmarked) [Compound 2i, 1-(3-Fluorophenyl)-3-(thiophen-3-yl)-5-[4-(4-morpholinyl)phenyl]-2-pyrazoline], at human AChE, the IC50 was more than 100 µM, the inhibition at 100 µM is 37.6 ± 1.51% and the inhibition at 1000 µM came out at 68.3 ± 2.15%. Also, on human BuChE, the IC50 is more than 1000 µM, the inhibition at 100 µM was determined as 27.4 ± 1.38% and the inhibition at 1000 µM came to 36.2 ± 1.42%.

The values are drawn from article PMC11270571 (ACS Omega, 2024).
